Assay results: PubChem BioAssay (NCI)
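GI50 = concentration required for 50% inhibition of growth. The concentration for full growth arrest is given as TGI.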

What was measured:
Assay in all cases: NCI-60 cell line screen, 384-well format
MALME-3M melanoma = test system: MALME-3M melanoma
HOP-62 NSCLC = test system: HOP-62 NSCLC
NCI-H322M lung = test system: NCI-H322M lung
NCI-H522 lung = test system: NCI-H522 lung
HT29 colon = test system: HT29 colon
RPMI-8226 leukemia = test system: RPMI-8226 leukemia
786-0 renal = test system: 786-0 renal
OVCAR-5 ovarian = test system: OVCAR-5 ovarian
SN12C renal = test system: SN12C renal
HL-60(TB) leukemia = test system: HL-60(TB) leukemia
COLO 205 colon = test system: COLO 205 colon
MOLT-4 leukemia = test system: MOLT-4 leukemia
UACC-62 melanoma = test system: UACC-62 melanoma
SK-OV-3 ovarian = test system: SK-OV-3 ovarian
UO-31 renal = test system: UO-31 renal
M14 melanoma = test system: M14 melanoma
HCT-15 colon = test system: HCT-15 colon
DU-145 prostate = test system: DU-145 prostate
NCI-H23 lung = test system: NCI-H23 lung
MDA-MB-435 melanoma = test system: MDA-MB-435 melanoma
A498 renal = test system: A498 renal
UACC-257 melanoma = test system: UACC-257 melanoma
HCC-2998 colon = test system: HCC-2998 colon
MCF7 breast = test system: MCF7 breast
SK-MEL-5 melanoma = test system: SK-MEL-5 melanoma
SNB-19 CNS = test system: SNB-19 CNS
IGROV1 ovarian = test system: IGROV1 ovarian
T-47D breast = test system: T-47D breast

SMILES: Cc1cc(C(=O)NC(C)(C)C)cc(C#Cc2ccc3c4c(oc3c2)C(C)(C)c2cc(NS(C)(=O)=O)ccc2C4=O)n1
- GI50 (MALME-3M melanoma): 695 nM
- TGI (MALME-3M melanoma): 3010 nM
- GI50 (HOP-62 NSCLC): 2130 nM
- TGI (HOP-62 NSCLC): 6760 nM
- GI50 (NCI-H322M lung): 2670 nM
- TGI (NCI-H322M lung): > 100000 nM
- GI50 (NCI-H522 lung): 813 nM
- TGI (NCI-H522 lung): 4130 nM
- GI50 (HT29 colon): 774 nM
- TGI (HT29 colon): 3060 nM
- GI50 (RPMI-8226 leukemia): 168 nM
- TGI (RPMI-8226 leukemia): 410 nM
- GI50 (786-0 renal): 642 nM
- TGI (786-0 renal): 2200 nM
- GI50 (OVCAR-5 ovarian): 2080 nM
- TGI (OVCAR-5 ovarian): 9850 nM
- GI50 (SN12C renal): 934 nM
- TGI (SN12C renal): > 100000 nM
- GI50 (HL-60(TB) leukemia): 591 nM
- TGI (HL-60(TB) leukemia): 1780 nM
- GI50 (COLO 205 colon): 1280 nM
- TGI (COLO 205 colon): 3420 nM
- GI50 (MOLT-4 leukemia): 565 nM
- TGI (MOLT-4 leukemia): 1700 nM
- GI50 (UACC-62 melanoma): 673 nM
- TGI (UACC-62 melanoma): 3960 nM
- GI50 (SK-OV-3 ovarian): 1930 nM
- TGI (SK-OV-3 ovarian): 7040 nM
- GI50 (UO-31 renal): 365 nM
- TGI (UO-31 renal): 1710 nM
- GI50 (M14 melanoma): 1080 nM
- TGI (M14 melanoma): 3340 nM
- GI50 (HCT-15 colon): 862 nM
- TGI (HCT-15 colon): > 100000 nM
- GI50 (DU-145 prostate): 1480 nM
- TGI (DU-145 prostate): 8910 nM
- GI50 (NCI-H23 lung): 602 nM
- TGI (NCI-H23 lung): 2630 nM
- GI50 (MDA-MB-435 melanoma): 410 nM
- TGI (MDA-MB-435 melanoma): 2030 nM
- GI50 (A498 renal): 833 nM
- TGI (A498 renal): 4660 nM
- GI50 (UACC-257 melanoma): 977 nM
- TGI (UACC-257 melanoma): 3070 nM
- GI50 (HCC-2998 colon): 1730 nM
- TGI (HCC-2998 colon): 8550 nM
- GI50 (MCF7 breast): 985 nM
- TGI (MCF7 breast): 4350 nM
- GI50 (SK-MEL-5 melanoma): 913 nM
- TGI (SK-MEL-5 melanoma): 2160 nM
- GI50 (SNB-19 CNS): 2920 nM
- TGI (SNB-19 CNS): > 100000 nM
- GI50 (IGROV1 ovarian): 2150 nM
- TGI (IGROV1 ovarian): > 100000 nM
- GI50 (T-47D breast): 631 nM
- TGI (T-47D breast): 2270 nM
